From patent US8021694B2, “Acidified chlorite disinfectant compositions with olefin stabilizers” (Ecolab USA Inc., priority 2001, dated 2011)

Legend:
Format in all cases: physicochemical
[1] = Rate of color fading at 35° C. of mixed acidified chlorite product, UV/Vis spectroscopy at 425 nm; conditions: for Initial Color Intensity Remaining, Time After Mixing 1 hour: 1 hour after mixing; for Initial Color Intensity Remaining, Time After Mixing 2 hour: 2 hour after mixing; for Initial Color Intensity Remaining, Time After Mixing 3 hour: 3 hour after mixing; for Initial Color Intensity Remaining, Time After Mixing 4 hour: 4 hour after mixing
Method: (§1) The rate of color fading at 35° C. was quantified by UV/Vis spectroscopy at 425 nm.
as §1

[2] = Rate of chlorine dioxide generation in mixed acidified chlorite product, UV/Vis spectroscopy at 360 nm; conditions: olefin 0.0225M in mixed product, 1.32% lactic acid, 0.32% sodium chlorite, pH 2.75; for Chlorine Dioxide, Time After Mixing 1 hour: 1 hour after mixing; for Chlorine Dioxide, Time After Mixing 2 hour: 2 hour after mixing; for Chlorine Dioxide, Time After Mixing 3 hour: 3 hour after mixing; for Chlorine Dioxide, Time After Mixing 4 hour: 4 hour after mixing; for Chlorine Dioxide, Time After Mixing 5 hour: 5 hour after mixing
Method: A series of two-part acidified chlorite products were prepared that when combined 1:1 produced compositions containing 1.32% lactic acid, 0.32% sodium chlorite, an olefin compound formulated at a 0.0225M, and sufficient quantities of sodium hydroxide to produce a mixed product pH of 2.75. The rate of chlorine dioxide generation was determined by UV/Vis spectroscopy at 360 nm (54.31 ppm/A.U. cm).

[3] = Rate of sodium chlorite consumption, standard iodometric titration; conditions: olefin compound at 1.4%
Source text: The rate of sodium chlorite consumption was quantified using a standard iodometric titration method.

[4] = olefin 0.045M in acid part (0.0225M mixed), FD&C Yellow #5, pH 2.75
[5] = component at 0.4%, mixed product pH 2.75

Oleth-10
Initial Color Intensity Remaining, Time After Mixing 1 hour [1, 4]: ** (>50% of Initial Color Intensity Remaining) | Initial Color Intensity Remaining, Time After Mixing 2 hour [1, 4]: ** (>50% of Initial Color Intensity Remaining) | Initial Color Intensity Remaining, Time After Mixing 3 hour [1, 4]: ** (>50% of Initial Color Intensity Remaining) | Initial Color Intensity Remaining, Time After Mixing 4 hour [1, 4]: ** (>50% of Initial Color Intensity Remaining) | Initial Color Intensity Remaining, Time After Mixing ½ hour [1, 4]: ** (>50% of Initial Color Intensity Remaining) | Chlorine Dioxide, Time After Mixing 1 hour [2]: 10 ppm | Chlorine Dioxide, Time After Mixing 2 hour [2]: 16 ppm | Chlorine Dioxide, Time After Mixing 3 hour [2]: 21 ppm | Chlorine Dioxide, Time After Mixing 4 hour [2]: 25 ppm | Chlorine Dioxide, Time After Mixing 5 hour [2]: 28 ppm

CCCCCCCC/C=C\CCCCCCCC(=O)NCCC[N+](C)(C)CC(=O)[O-] [Oleamidopropyl betaine]
Initial Color Intensity Remaining, Time After Mixing 1 hour [1, 4]: ** (>50% of Initial Color Intensity Remaining) | Initial Color Intensity Remaining, Time After Mixing 2 hour [1, 4]: ** (>50% of Initial Color Intensity Remaining) | Initial Color Intensity Remaining, Time After Mixing 3 hour [1, 4]: ** (>50% of Initial Color Intensity Remaining) | Initial Color Intensity Remaining, Time After Mixing 4 hour [1, 4]: ** (>50% of Initial Color Intensity Remaining) | Initial Color Intensity Remaining, Time After Mixing ½ hour [1, 4]: ** (>50% of Initial Color Intensity Remaining)

Oleth-10 phosphate
Initial Color Intensity Remaining, Time After Mixing 1 hour [1, 4]: ** (>50% of Initial Color Intensity Remaining) | Initial Color Intensity Remaining, Time After Mixing 2 hour [1, 4]: ** (>50% of Initial Color Intensity Remaining) | Initial Color Intensity Remaining, Time After Mixing 3 hour [1, 4]: ** (>50% of Initial Color Intensity Remaining) | Initial Color Intensity Remaining, Time After Mixing 4 hour [1, 4]: ** (>50% of Initial Color Intensity Remaining) | Initial Color Intensity Remaining, Time After Mixing ½ hour [1, 4]: ** (>50% of Initial Color Intensity Remaining) | Chlorine Dioxide, Time After Mixing 1 hour [2]: 7 ppm | Chlorine Dioxide, Time After Mixing 2 hour [2]: 14 ppm | Chlorine Dioxide, Time After Mixing 3 hour [2]: 17 ppm | Chlorine Dioxide, Time After Mixing 4 hour [2]: 21 ppm | Chlorine Dioxide, Time After Mixing 5 hour [2]: 25 ppm

CCCCCCCC/C=C\CCCCCCCC(=O)NCCOC(=O)C(CC(=O)[O-])S(=O)(=O)[O-].[Na+].[Na+] (centres unmarked) [Disodium oleamido MEA sulfosuccinate]
Initial Color Intensity Remaining, Time After Mixing 1 hour [1, 4]: ** (>50% of Initial Color Intensity Remaining) | Initial Color Intensity Remaining, Time After Mixing 2 hour [1, 4]: ** (>50% of Initial Color Intensity Remaining) | Initial Color Intensity Remaining, Time After Mixing 3 hour [1, 4]: ** (>50% of Initial Color Intensity Remaining) | Initial Color Intensity Remaining, Time After Mixing 4 hour [1, 4]: ** (>50% of Initial Color Intensity Remaining) | Initial Color Intensity Remaining, Time After Mixing ½ hour [1, 4]: ** (>50% of Initial Color Intensity Remaining)

CCCCCCCC/C=C\CCCCCCCC[N+](C)(CCO)CCO.[Cl-] [oleylmethylbis(hydroxyethyl)ammonium chloride]
Initial Color Intensity Remaining, Time After Mixing 1 hour [1, 4]: ** (>50% of Initial Color Intensity Remaining) | Initial Color Intensity Remaining, Time After Mixing 2 hour [1, 4]: ** (>50% of Initial Color Intensity Remaining) | Initial Color Intensity Remaining, Time After Mixing 3 hour [1, 4]: ** (>50% of Initial Color Intensity Remaining) | Initial Color Intensity Remaining, Time After Mixing 4 hour [1, 4]: ** (>50% of Initial Color Intensity Remaining) | Initial Color Intensity Remaining, Time After Mixing ½ hour [1, 4]: ** (>50% of Initial Color Intensity Remaining)

CCCCCCCC/C=C\CCCCCCCC(=O)N(C)CCS(=O)(=O)[O-].[Na+] [Sodium N-methyl oleoyl taurate, sodium N-methyl oleoyl taurate]
Initial Color Intensity Remaining, Time After Mixing 1 hour [1, 5]: ** (>50% of Initial Color Intensity Remaining) | Initial Color Intensity Remaining, Time After Mixing 1 hour [1, 4]: ** (>50% of Initial Color Intensity Remaining) | Initial Color Intensity Remaining, Time After Mixing 2 hour [1, 5]: ** (>50% of Initial Color Intensity Remaining) | Initial Color Intensity Remaining, Time After Mixing 2 hour [1, 4]: ** (>50% of Initial Color Intensity Remaining) | Initial Color Intensity Remaining, Time After Mixing 3 hour [1, 5]: ** (>50% of Initial Color Intensity Remaining) | Initial Color Intensity Remaining, Time After Mixing 3 hour [1, 4]: ** (>50% of Initial Color Intensity Remaining) | Initial Color Intensity Remaining, Time After Mixing 4 hour [1, 4]: ** (>50% of Initial Color Intensity Remaining) | Extension of colorant intensity ([1]; component at 0.4%, in words): extended the colorant intensity longer | Initial Color Intensity Remaining, Time After Mixing ½ hour [1, 5]: ** (>50% of Initial Color Intensity Remaining) | Initial Color Intensity Remaining, Time After Mixing ½ hour [1, 4]: ** (>50% of Initial Color Intensity Remaining) | Chlorine Dioxide, Time After Mixing 1 hour [2]: 4 ppm | Chlorine Dioxide, Time After Mixing 2 hour [2]: 5 ppm | Chlorine Dioxide, Time After Mixing 3 hour [2]: 5 ppm | Chlorine Dioxide, Time After Mixing 4 hour [2]: 6 ppm | Chlorine Dioxide, Time After Mixing 5 hour [2]: 7 ppm | Initial NaClO2 Level remaining, Time After Mixing 1 hour ([3]; 1 hour after mixing, pH 2.75 when mixed 1:1): ** (>50% Initial NaClO2 Level) | Initial NaClO2 Level remaining, Time After Mixing 2 hour ([3]; 2 hour after mixing, pH 2.75 when mixed 1:1): ** (>50% Initial NaClO2 Level) | Initial NaClO2 Level remaining, Time After Mixing 3 hour ([3]; 3 hour after mixing, pH 2.75 when mixed 1:1): ** (>50% Initial NaClO2 Level) | Initial NaClO2 Level remaining, Time After Mixing 4 hour ([3]; 4 hour after mixing, pH 2.75 when mixed 1:1): ** (>50% Initial NaClO2 Level) | Initial NaClO2 Level remaining, Time After Mixing 5 hour ([3]; 5 hour after mixing, pH 2.75 when mixed 1:1): ** (>50% Initial NaClO2 Level) | Rate of sodium chlorite consumption ([3]; equal weight-base comparison, in words): stronger effect than alpha olefin sulfonate
